Test results: patent publication US20200354331A1, “ICARIIN DERIVATIVES” (H. LEE MOFFITT CANCER CENTER AND RESEARCH INSTITUTE, INC., priority 2014, published 2020)
Like-named read-outs stand apart in the source and are kept apart here.

How the values were obtained:
Type in all cases: cell-based
[1] = tested on: U937; assay: IC50 / toxicity in cells; conditions: Homo sapiens, U-937
[2] = tested on: Bone marrow; assay: IC50 / toxicity in cells; conditions: Mus musculus
Protocol: (§1) Specifically, BMNCs from three healthy donors were treated with different concentrations of ICA or ICT for 48 hours after which colony formation was assessed using MethoCult H4434 complete medium with cytokines. The mixture was placed in 35-mm culture dishes (1×10^5 cells/each dish) and incubated at 37° C. in 5% CO2 for approximately 7-14 days. After incubation, colonies of CFU-E, BFU-E and CFU-GM were indentified and counted using an inverted light microscope. […] Although, these cells were obtained from spleens, it was also found ICA/ICT has a similar effect on MDSCs isolated from tumor tissue. Here, Gr1^+ cells were isolated from tumors of 4T1 tumor-bearing mice. MDSCs were treated with 20 μM of ICA, ICT, or DMSO for 48 h. Bars represent the relative percentage of MDSC as compared to DMSO treated cells measured by flow cytometry (FIG. 3A). The production of ROS (FIG. 3B) and NO (FIG. 3C) activity of purified MDSC from tumor tissue was also measured.

[3] = tested on: IL-10, TGFb, TNFa, ARG2 and NOS2; assay: Expression of suppressive factors in PBMC (Q-PCR); conditions: healthy PBMC, 48 hours, 20 μM
Protocol: Healthy PBMC were cultured for 48 hours with 20 μM the gene expression of suppressive factors measured by the DDCt method. The experimental control is PBMC treated with DMSO and the internal control was GAPDH. Error bars indicate the SEM of three separate donors/experiments.

[4] = tested on: PBMC; assay: IC50 / toxicity in cells
[5] = tested on: MDSCs isolated from tumors of 4T1 tumor-bearing mice; assay: ROS and NO production of MDSC isolated from tumors; conditions: MDSCs from tissue of tumor-bearing mice, 20 μM, 48 h
Protocol: FIGS. 3A-3C depicts the effect of ICA and ICT on expansion of MDSCs isolated from tumor and their ROS and NO production. Gr1^+ cells were isolated from tumors of 4T1 tumor-bearing mice. (FIG. 3A) MDSCs were treated with 20 μM of ICA, ICT, or DMSO for 48 h. Bars represent the relative percentage of MDSC as compared to DMSO treated cells measured by flow cytometry. (FIG. 3B) Production of ROS and (FIG. 3C) NO activity of purified MDSC from tumor tissue.
as §1, with “MDSCs were treated with 20 μM of ICA, ICT, or DMSO for 48 h.” left out

[6] = tested on: Raji; assay: Apoptosis rates of ICT in cell lines
[7] = tested on: MCF-7; assay: IC50 of ICT in cell lines; conditions: Homo sapiens, MCF7
[8] = tested on: Raji; assay: IC50 of ICT in cell lines; conditions: Homo sapiens
[9] = molecular target: T1, PP2A (Homo sapiens, UniProt P67775); assay: PP2A activity in PBMC lysates, in vitro phosphatase assay kit; conditions: 48 hours, 1 μM
T1 construct: endogenous in cells; host or cells: human PBMC
Protocol: FIG. 9 depicts the effect of ICA and ICT on the activity of PP2A. Human PBMC were cultured for 48 hours with media, DMSO, 1 μM of ICA or ICT. The cell lysates were used to analyze PP2A activity using a commercial in vitro phosphatase assay kit (Millipore). Error bars represent the SEM of three separate experiments.
To understand if there is a link correlating S100A9/SIGLEC3 and PDE5 activation, SJCRH30 cells were transfected with either vector, S100A9 or SIGLEC 3. Seventy two hours post-transfection cells were lysed and assessed by Western Blot for either PDE5 or its phosphorylated counterpart. […] This represents a new pathway of MDSC activation that can be specifically targeted by ICA, ICT, and their derivatives disclosed herein.

[10] = tested on: Bone marrow; assay: Apoptosis rates of ICT in cell lines
[11] = tested on: K562; assay: IC50 of ICT in cell lines; conditions: Homo sapiens
[12] = tested on: B16; assay: Apoptosis rates of ICT in cell lines
[13] = tested on: K562; assay: Apoptosis rates of ICT in cell lines
[14] = molecular target: T2, PP2A bound to PDE5 (Homo sapiens, UniProt O76074); assay: Co-immunoprecipitation of PDE5 with PP2A in PBMC; conditions: 48 hours
T2 construct: Cells were then lysed and PDE5 was immunoprecipitated following a Western Blot with anti-PP2A; endogenous in cells; host or cells: human PBMC
Protocol: Human PBMC were cultured for 48 hours with media, DMSO or increasing doses of ICT (1, 5, 10, 20 μM respectively). Cells were then lysed and PDE5 was immunoprecipitated following a Western Blot with anti-PP2A. Coomasie blue staining of the membrane is shown as loading control.
To understand if there is a link correlating S100A9/SIGLEC3 and PDE5 activation, SJCRH30 cells were transfected with either vector, S100A9 or SIGLEC 3. Seventy two hours post-transfection cells were lysed and assessed by Western Blot for either PDE5 or its phosphorylated counterpart.

[15] = tested on: 4T1; assay: IC50 of ICT in cell lines; conditions: Mus musculus
[16] = tested on: CD33 and iNOS; assay: Expression of CD33 and iNOS on MDS-BM (flow cytometry, Q-PCR); parameters: concentration or dose not given beside the values; conditions: 48 hours, 20 ICT
[17] = tested on: B16; assay: IC50 of ICT in cell lines; conditions: Mus musculus
[18] = tested on: MCF-7; assay: Apoptosis rates of ICT in cell lines
[19] = tested on: U937; assay: Apoptosis rates of ICT in cell lines
[20] = tested on: 4T1; assay: Apoptosis rates of ICT in cell lines

T1 sequence (P67775 whole entry): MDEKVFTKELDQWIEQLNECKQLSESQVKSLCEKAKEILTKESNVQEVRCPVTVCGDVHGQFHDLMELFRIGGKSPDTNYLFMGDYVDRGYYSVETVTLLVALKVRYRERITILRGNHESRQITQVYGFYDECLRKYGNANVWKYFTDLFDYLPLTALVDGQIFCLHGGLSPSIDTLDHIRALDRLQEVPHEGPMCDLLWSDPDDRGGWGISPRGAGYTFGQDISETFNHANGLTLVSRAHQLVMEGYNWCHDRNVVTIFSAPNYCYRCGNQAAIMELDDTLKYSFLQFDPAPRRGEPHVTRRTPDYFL

COc1ccc(-c2oc3c(CCC(C)(C)O)c(O)cc(O)c3c(=O)c2O)cc1 [ICT, 3,5,7-trihydroxy-4′-methoxy-8-(3-hydroxy-3-methylbutyl)-flavone] was tested, and the IC50 ([1]; U937, read-out: IC50) was over 100 µM, the IC50 ([2]; Bone marrow (bone marrow mononuclear cells, BMMC), read-out: IC50) was over 100 µM and the “expression of suppressive factors in PBMC” value [3] was “down-regulate the expression of suppressive factors in PBMC”. The IC50 ([4]; read-out: IC50) was over 100 µM, the “NO and ROS production by MDSCs” value [5] was “inhibit NO and ROS production” and the Apoptosis rates ([6]; 5 μM) was 9.1%. The Apoptosis rates ([6]; 10 μM) was 9.2%, the Apoptosis rates ([6]; 20 μM) was 10.0% and the IC50 [7] was 23.2 µM. The IC50 [8] was 25.6 µM, the “phosphatase activity of PP2A” value [9] was “up-regulate the phosphatase activity of PP2A in vitro” and the Apoptosis rates ([10]; 5 μM) was 2.7%. For the same molecule, the Apoptosis rates ([10]; 10 μM) was 4.3%, the Apoptosis rates ([10]; 20 μM) was 4.8% and the IC50 [11] was 50.5 µM. It also gave an Apoptosis rates ([12]; B16, 5 μM) of 2.5%, an Apoptosis rates ([12]; B16, 10 μM) of 3.8% and an Apoptosis rates ([12]; B16, 20 μM) of 3.5%. It also gave an Apoptosis rates ([13]; K562, 5 μM) of 5.5%, an Apoptosis rates ([13]; K562, 10 μM) of 6.7% and an Apoptosis rates ([13]; K562, 20 μM) of 7.8%. For the same molecule, the “association of PP2A with PDE5” value [14] was “decreased”, the IC50 [15] was 6.7 µM and the “expression of CD33 and iNOS on MDS-BM” value [16] was “down-regulate the expression of CD33 and iNOS on MDS-BM”. The IC50 [17] was 25.8 µM, the Apoptosis rates ([18]; MCF-7, 5 μM) was 3.9% and the Apoptosis rates ([18]; MCF-7, 10 μM) was 4.1%. The Apoptosis rates ([18]; MCF-7, 20 μM) was 6.1%, the Apoptosis rates ([19]; U937, 5 μM) was 3.1% and the Apoptosis rates ([19]; U937, 10 μM) was 2.6%. The Apoptosis rates ([19]; U937, 20 μM) was 2.7%, the Apoptosis rates ([20]; 4T1, 5 μM) was 4.0% and the Apoptosis rates ([20]; 4T1, 10 μM) was 6.3%. The Apoptosis rates ([20]; 4T1, 20 μM) was 7.1%.
For COc1ccc(-c2oc3c(CC=C(C)C)c(O[C@@H]4O[C@H](CO)[C@@H](O)[C@H](O)[C@H]4O)cc(O)c3c(=O)c2O[C@@H]2O[C@@H](C)[C@H](O)[C@@H](O)[C@H]2O)cc1 [ICA, Icariin], the IC50 [1] was over 100 µM, the IC50 ([2]; BMMC) was over 100 µM and the IC50 [4] was over 100 µM. For the same molecule, the “NO and ROS production by MDSCs” value [5] was “inhibit NO and ROS production”, the “phosphatase activity of PP2A” value [9] was “up-regulate the phosphatase activity of PP2A in vitro” and the “association of PP2A with PDE5” value [14] was “decreased”.
